Measured values: patent US20220280492A1, “THERAPEUTIC AGENT FOR CANCER HAVING RESISTANCE TO ANTI-CCR4 ANTIBODY” (DAIICHI SANKYO COMPANY, LIMITED, priority 2019, published 2022)

Tests used:
[1] = system: recurrent or refractory ATL patients; assay: multicenter open-label phase I trial of the clinical compound in non-Hodgkin's lymphoma patients; ATL patients analyzed; assay type: in vivo, human; set-up: key to Determination of effect on lesion site: Peripheral blood image / Best overall effect / Determination of effect on lesion site: Nodular lesion / Determination of effect on lesion site: Extranodal lesion: CR: Complete Remission; CRu: Uncertified Complete Remission; PR: Partial Remission; SD: Stable Disease; PD: Progressive Disease; NE: Not Evaluable
Method: Clinical trials which administer the clinical compound to patients with non-Hodgkin's lymphoma were carried out. ATL patients of the non-Hodgkin's lymphoma patients receiving the clinical compound were analyzed.
The clinical trial is a multicenter open-label phase I trial for the purpose of studying, e.g., safety, tolerability, pharmacokinetics and anti-tumor effect, by administering the clinical compound to patients with recurrent or refractory non-Hodgkin's lymphoma (no standard treatment is established or refractory or intolerant to a standard treatment) including ATL patients. […] In this manner, dose-limiting toxicity and recommended dose for the next phase are determined in the clinical trial.
The clinical compound was orally administered to individual test subjects once a day for consecutive days until unacceptable toxicity or disease progression was confirmed. […] The anti-tumor effect was observed principally, at intervals of 8 weeks, and evaluated based on “Definition, prognostic factors, treatment, and response criteria of adult T-cell leukemia-lymphoma: a proposal from an international consensus meeting” (J Clin Oncol. 2009; 27[3]: 453-9).
The dose of the first cohort was determined to be 150 mg/time/day based on the results of a nonclinical study. The dose of the next cohort was determined by comprehensively evaluating the dose recommended by the modified continual reassessment method (mCRM) based on information of the presence or absence of dose-limited toxicity and all safety data (including adverse event except dose limiting toxicity and abnormal laboratory test values), pharmacokinetics, biomarkers, and effectiveness data obtained up to the time point, and discussing with a sponsors, investigators and external experts.
The dosage amount of the clinical compound was in advance determined per cohort. As the clinical compound, two types of capsules different in dose were provided in combination. As the administration method, oral administration once a day was carried out for consecutive days.
The therapeutic effect on ATL was determined based on “Definition, prognostic factors, treatment, and response criteria of adult T-cell leukemia-lymphoma: a proposal from an international consensus meeting” (J Clin Oncol. 2009; 27[3]: 453-9). Before initiation of the clinical trial, necessary examinations, which were selected from CT scan, bone marrow examination, endoscopic inspection and blood test in accordance with the disease state of the test subject, were carried out to determine a target lesion. A change in the lesion was assessed principally at intervals of 8 weeks.

[2] = system: ATL patients with a history of treatment with the anti-CCR4 antibody mogamulizumab; settings: phase II trials; cited from earlier work
[3] = ATL patient No. 1, 150 mg oral once a day, treatment history: mogamulizumab present, lenalidomide present
[4] = ATL patient No. 2, 150 mg oral once a day, treatment history: mogamulizumab present, no lenalidomide
[5] = ATL patient No. 9, 200 mg oral once a day, treatment history: no mogamulizumab, lenalidomide present

Cc1cc(C)c(CNC(=O)c2cc(Cl)c3c(c2C)O[C@@](C)([C@H]2CC[C@H](N(C)C)CC2)O3)c(=O)[nH]1.Cc1ccc(S(=O)(=O)O)cc1 [clinical compound, (2R)-7-chloro-2-[trans-4-(dimethylamino)cyclohexyl]-N-[(4,6-dimethyl-2-oxo-1,2-dihydropyridin-3-yl)methyl]-2,4-dimethyl-1,3-benzodioxol-5-carboxamide p-toluenesulfonate]
median value of PFS ([1]; 9 recurrent or refractory ATL patients): 16.1 weeks
Best overall effect [1, 3]: PD
Determination of effect on lesion site: Extranodal lesion [1, 3]: PD
Determination of effect on lesion site: Nodular lesion [1, 3]: PD
Best overall effect [1, 4]: PR
Determination of effect on lesion site: Extranodal lesion [1, 4]: PR
Determination of effect on lesion site: Nodular lesion [1, 4]: Cru
Best overall effect [1, 5]: PR
Determination of effect on lesion site: Peripheral blood image [1, 5]: PR
patients evaluated as SD ([1]; of 6 patients with a history of treatment with mogamulizumab): 2 patients
responders ([1]; of 6 patients with a history of treatment with mogamulizumab (CRu: 1 patient, PR: 2 patients)): 3 patients
response rate ([1]; recurrent or refractory ATL patients evaluable for effectiveness, 4 out of 9 patients [CRu: 1, PR: 3], 95%CI 13.7 to 78.8, intermediate data, oral once a day): 44.4%
disease control rate (percentage of patients exerting an effect of SD or more) ([1]; recurrent or refractory ATL patients, 7 out of 9 patients, intermediate data): 77.8%

Nc1cccc2c1CN(C1CCC(=O)NC1=O)C2=O (centres unmarked) [lenalidomide]
response rate [2]: about 18%
